Where only a bound is given, the exact number is not on record here.

The target in this test is T1, pY705-STAT3 in PBMC (Homo sapiens, UniProt P40763).
T1 construct: Cryopreserved Peripheral Blood Mononuclear Cells (PBMC) are from AllCells; host or cells: cryopreserved PBMC
T1 sequence (P40763 whole entry): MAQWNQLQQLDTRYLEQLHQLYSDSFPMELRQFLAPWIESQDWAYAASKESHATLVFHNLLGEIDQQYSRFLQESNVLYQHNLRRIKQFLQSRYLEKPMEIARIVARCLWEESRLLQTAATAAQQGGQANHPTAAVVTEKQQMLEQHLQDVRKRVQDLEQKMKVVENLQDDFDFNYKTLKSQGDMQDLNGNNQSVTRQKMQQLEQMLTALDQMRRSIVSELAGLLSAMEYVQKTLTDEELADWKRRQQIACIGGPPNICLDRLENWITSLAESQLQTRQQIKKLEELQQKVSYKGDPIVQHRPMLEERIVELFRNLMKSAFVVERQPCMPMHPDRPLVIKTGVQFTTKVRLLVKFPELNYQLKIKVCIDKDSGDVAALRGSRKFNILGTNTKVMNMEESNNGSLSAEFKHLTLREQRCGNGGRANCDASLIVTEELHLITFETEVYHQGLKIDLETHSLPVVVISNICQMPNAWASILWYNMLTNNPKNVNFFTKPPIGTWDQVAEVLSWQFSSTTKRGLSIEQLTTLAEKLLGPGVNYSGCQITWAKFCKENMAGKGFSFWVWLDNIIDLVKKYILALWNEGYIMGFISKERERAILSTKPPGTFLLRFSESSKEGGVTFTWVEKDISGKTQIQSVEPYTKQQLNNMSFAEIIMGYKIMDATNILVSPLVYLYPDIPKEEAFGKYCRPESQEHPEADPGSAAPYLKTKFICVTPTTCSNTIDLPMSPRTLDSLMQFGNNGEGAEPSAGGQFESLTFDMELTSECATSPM
The experiment in a line: MSD-pSTAT-PBMC Assay (pSTAT3, IL-6 stimulated). Type of test: cell-based. To be noted: PBMC, compound 3 hrs, then 10 ng/mL IL-6 for 10 min; Table 115; read-out: STAT3. From the text: Cryopreserved Peripheral Blood Mononuclear Cells (PBMC) are from AllCells. Recombinant Human IL-4 and IL-6 are from Peprotech. Mouse monoclonal anti-STAT3 antibody, rabbit monoclonal anti-pY705-STAT3 antibody, rabbit monoclonal Anti-pY641-STAT6 antibody, and lysis buffer are from Cell Signaling Technology (CST). Mouse monoclonal anti-STAT6 antibody is from BioLegend. Assay plates, blocker, and anti-rabbit secondary antibody are from Meso Scale Discovery (MSD).
Cyropreserved PBMCs were thawed out and allowed to recover overnight in IMDM+10% heat-inactivated FBS prior to plating 50,000 (STAT3) or 25,000 (STAT6) cells per well in 96-well U-bottom tissue culture plates. Cells were treated with compound for 3 hrs, then stimulated with 10 ng/mL IL-6 (STAT3) or 1 ng/mL IL-4 (STAT6) for 10 min. Cells were then spun down and washed with ice-cold PBS prior to lysing the cell pellet with 1× lysis buffer (CST) with 1× HALT protease and phosphatase inhibitor cocktail (Thermo). Lysates were transferred to and incubated overnight at 4° C. with shaking in QuickPlex 96-well high bind assay plates (MSD) pre-coated overnight with 30 μL per well of 0.6 μg/mL mouse monoclonal anti-STAT3 antibody (STAT3) or 2 μg/mL mouse monoclonal anti-STAT6 antibody (STAT6) in 1× PBS, and pre-blocked for 1 hour with 3% Blocker-A (MSD). Captured protein in the assay plates were then washed and probed with 25 μL per well of […] rabbit monoclonal anti-pY705-STAT3 antibody (STAT3) or 0.18 μg/ml rabbit monoclonal Anti-pY641-STAT6 antibody (STAT6) in 1% Blocker-A for 1 hour at room temperature with shaking, then washed and probed with 25 ul per well of 1 ug/ml Sulfo-TAG Labeled Goat Anti-Rabbit Antibody (MSD) in 1% Blocker-A for 1 hour at room temperature with shaking. Assay plates were then washed and 150 μL of 1× Read Buffer-T (MSD) was added to each well prior to reading on an SQ120 MSD Plate Reader. Assay signal from each sample was subtracted by the signal from unstimulated control wells and normalized to DMSO control wells. IC50 values were calculated using Graph Pad Prism Dose-Response Nonlinear Regression with variable slope. For both pSTAT3 and pSTAT6 A=≤100 nM; B 100-1000 nM; C=>1000-3000 nM; D=>3 μM; and NT=Not Tested.
As for `CCCOC(=O)[C@H](C)N[P@](=O)(Oc1ccccc1)[C@@H](F)c1ccc2sc(C(=O)N[C@H]3CCC[C@H]4CC[C@@H](C(=O)N5CC(c6cccnc6)C5)N4C3=O)cc2c1` (single isomer, unassigned) [Compound 446], the IC50 was less than 100 nM.

`CCCOC(=O)[C@H](C)N[P@@](=O)(Oc1ccccc1)[C@H](F)c1ccc2sc(C(=O)N[C@H]3CCC[C@H]4CC[C@@H](C(=O)N5CC(c6cccnc6)C5)N4C3=O)cc2c1` (single isomer, unassigned) [Compound 463]: the IC50 is less than 100 nM.

`COc1ccncc1C1CN(C(=O)[C@@H]2CC[C@@H]3CCC[C@H](NC(=O)c4cc5cc([C@@H](F)[P@@](=O)(N[C@@H](C)C(=O)OC(C)C)Oc6ccccc6)ccc5s4)C(=O)N32)C1` (single isomer, unassigned) [Compound 955]: the IC50 was less than 100 nM.

`COc1ccncc1C1CN(C(=O)[C@@H]2CC[C@@H]3CCC[C@H](NC(=O)c4cc5cc([C@@H](F)[P@@](=O)(N[C@@H](C)C(=O)OC(C)C)Oc6ccccc6)ccc5s4)C(=O)N32)C1` (single isomer, unassigned) [Compound 956]: the IC50 was less than 100 nM.

With `COc1ccncc1C1CN(C(=O)[C@@H]2CC[C@@H]3CCC[C@H](NC(=O)c4cc5cc([C@H](F)[P@@](=O)(N[C@@H](C)C(=O)OCC(C)(C)C)Oc6ccccc6)ccc5s4)C(=O)N32)C1` (single isomer, unassigned) [Compound 959], the IC50 is less than 100 nM.

Take `COc1ccncc1C1CN(C(=O)[C@@H]2CC[C@@H]3CCC[C@H](NC(=O)c4cc5cc([C@H](F)[P@](=O)(N[C@@H](C)C(=O)OCC(C)(C)C)Oc6ccccc6)ccc5s4)C(=O)N32)C1` (single isomer, unassigned) [Compound 960]: the IC50 fell in the range of 100 to 1000 nM.

On to `CCCOC(=O)[C@H](C)N[P@](=O)(Oc1ccccc1)[C@H](F)c1ccc2sc(C(=O)N[C@H]3CCC[C@H]4CC[C@@H](C(=O)N5CC(c6cnccc6F)C5)N4C3=O)cc2c1` (single isomer, unassigned) [Compound 997], for which the IC50 was less than 100 nM.

As to `CCCOC(=O)[C@H](C)N[P@](=O)(Oc1ccccc1)[C@H](F)c1ccc2sc(C(=O)N[C@H]3CCC[C@H]4CC[C@@H](C(=O)N5CC(c6cnccc6F)C5)N4C3=O)cc2c1` (single isomer, unassigned) [Compound 998], the IC50 is less than 100 nM.

Regarding `CCCOC(=O)[C@H](C)N[P@](=O)(Oc1ccccc1)[C@H](F)c1ccc2sc(C(=O)N[C@H]3CCC[C@H]4CC[C@@H](C(=O)N5CC(c6cnccc6OC)C5)N4C3=O)cc2c1` (single isomer, unassigned) [Compound 999], the IC50 was less than 100 nM.

As for `CCCOC(=O)[C@H](C)N[P@@](=O)(Oc1ccccc1)[C@H](F)c1ccc2sc(C(=O)N[C@H]3CCC[C@H]4CC[C@@H](C(=O)N5CC(c6cnccc6C)C5)N4C3=O)cc2c1` (single isomer, unassigned) [Compound 1000], the IC50 is less than 100 nM.

Take `CCCOC(=O)[C@H](C)N[P@@](=O)(Oc1ccccc1)[C@H](F)c1ccc2sc(C(=O)N[C@H]3C[C@@H](C)C[C@H]4CC[C@@H](C(=O)N5CC(c6cnccc6C)C5)N4C3=O)cc2c1` (single isomer, unassigned) [Compound 1001]: the IC50 was less than 100 nM.

Consider `COc1ccncc1C1CN(C(=O)[C@@H]2CC[C@@H]3CCC[C@H](NC(=O)c4cc5cc([C@H](F)[P@@](=O)(N[C@@H](C)C(=O)OC(C)C)Oc6ccccc6)ccc5s4)C(=O)N32)C1` (single isomer, unassigned) [Compound 1023], for which the IC50 was in the range of 100 to 1000 nM.

With `CCCOC(=O)[C@H](C)N[P@@](=O)(Oc1ccccc1)[C@@H](F)c1ccc2sc(C(=O)N[C@H]3CCC[C@H]4CC[C@@H](C(=O)N5CC(c6cnccc6C)C5)N4C3=O)cc2c1` (single isomer, unassigned) [Compound 1027], the IC50 is less than 100 nM.

For the molecule `CCCOC(=O)[C@H](C)N[P@@](=O)(Oc1ccccc1)[C@@H](F)c1ccc2sc(C(=O)N[C@H]3CCC[C@H]4CC[C@@H](C(=O)N5CC(c6cnccc6OC)C5)N4C3=O)cc2c1` (single isomer, unassigned) [Compound 1032], the IC50 is less than 100 nM.

Regarding `CCCOC(=O)[C@H](C)N[P@](=O)(Oc1ccccc1)[C@@H](F)c1ccc2sc(C(=O)N[C@H]3C[C@@H](C)C[C@H]4CC[C@@H](C(=O)N5CC(c6cnccc6OC(C)C)C5)N4C3=O)cc2c1` (single isomer, unassigned) [Compound 1033], the IC50 was less than 100 nM.

As to `CCCOC(=O)[C@H](C)N[P@](=O)(Oc1ccccc1)[C@@H](F)c1ccc2sc(C(=O)N[C@H]3C[C@@H](C)C[C@H]4CC[C@@H](C(=O)N5CC(c6cnccc6OC(C)C)C5)N4C3=O)cc2c1` (single isomer, unassigned) [Compound 1034], the IC50 was less than 100 nM.

As for `CCCOC(=O)[C@H](C)N[P@](=O)(Oc1ccccc1)[C@@H](F)c1ccc2sc(C(=O)N[C@H]3CCC[C@H]4CC[C@@H](C(=O)N5CC(c6cnccc6C)C5)N4C3=O)cc2c1` (single isomer, unassigned) [Compound 1035], the IC50 was less than 100 nM.

As to `CCCOC(=O)[C@H](C)N[P@@](=O)(Oc1ccccc1)[C@@H](F)c1ccc2sc(C(=O)N[C@H]3C[C@@H](C)C[C@H]4CC[C@@H](C(=O)N5CC(c6cnccc6C)C5)N4C3=O)cc2c1` (single isomer, unassigned) [Compound 1036], the IC50 was less than 100 nM.

For `CCCOC(=O)[C@H](C)N[P@@](=O)(Oc1ccccc1)[C@@H](F)c1ccc2sc(C(=O)N[C@H]3C[C@@H](C)C[C@H]4CC[C@@H](C(=O)N5CC(c6cnccc6C)C5)N4C3=O)cc2c1` (single isomer, unassigned) [Compound 1037], the IC50 was less than 100 nM.

Take `CCCOC(=O)[C@H](C)N[P@@](=O)(Oc1ccccc1)[C@@H](F)c1ccc2sc(C(=O)N[C@H]3CCC[C@H]4CC[C@@H](C(=O)N5CC(c6cnccc6OC)C5)N4C3=O)cc2c1` (single isomer, unassigned) [Compound 1039]: the IC50 is less than 100 nM.

`CCCOC(=O)[C@H](C)N[P@@](=O)(Oc1ccccc1)[C@@H](F)c1ccc2sc(C(=O)N[C@H]3C[C@H](C)C[C@H]4CC[C@@H](C(=O)N5CC(c6cnccc6OC)C5)N4C3=O)cc2c1` (single isomer, unassigned) [Compound 1040]: the IC50 is less than 100 nM.

With `CCCOC(=O)[C@H](C)N[P@@](=O)(Oc1ccccc1)[C@@H](F)c1ccc2sc(C(=O)N[C@H]3C[C@H](C)C[C@H]4CC[C@@H](C(=O)N5CC(c6cnccc6OC)C5)N4C3=O)cc2c1` (single isomer, unassigned) [Compound 1041], the IC50 was less than 100 nM.

Turning to `CCCOC(=O)[C@H](C)N[P@](=O)(Oc1ccccc1)[C@H](F)c1ccc2sc(C(=O)N[C@H]3CCC[C@H]4CC[C@@H](C(=O)N5CC(c6cnccc6N6CCOCC6)C5)N4C3=O)cc2c1` (single isomer, unassigned) [Compound 1044], the IC50 is less than 100 nM.

As to `CCCOC(=O)[C@H](C)N[P@](=O)(Oc1ccccc1)[C@@H](F)c1ccc2sc(C(=O)N[C@H]3CCC[C@H]4CC[C@@H](C(=O)N5CC(c6cnccc6N6CCOCC6)C5)N4C3=O)cc2c1` (single isomer, unassigned) [Compound 1046], the IC50 lay in the range of 100 to 1000 nM.

Consider `CCCOC(=O)[C@H](C)N[P@](=O)(Oc1ccccc1)[C@@H](F)c1ccc2sc(C(=O)N[C@H]3CCC[C@H]4CC[C@@H](C(=O)N5CC(c6cnccc6N6CCOCC6)C5)N4C3=O)cc2c1` (single isomer, unassigned) [Compound 1047], for which the IC50 was in the range of 100 to 1000 nM.

`CCCOC(=O)[C@H](C)N[P@](=O)(Oc1ccccc1)[C@H](F)c1ccc2sc(C(=O)N[C@H]3C[C@@H](C)C[C@H]4CC[C@@H](C(=O)N5CC(c6cnccc6C)C5)N4C3=O)cc2c1` (single isomer, unassigned) [Compound 1048]: the IC50 is less than 100 nM.

As for `CCCOC(=O)[C@H](C)N[P@@](=O)(Oc1ccccc1)[C@H](F)c1ccc2sc(C(=O)N[C@H]3CCC[C@H]4CC[C@@H](C(=O)N5CC(c6cnccc6C)C5)N4C3=O)cc2c1` (single isomer, unassigned) [Compound 1049], the IC50 was less than 100 nM.

Regarding `COc1ccncc1C1CN(C(=O)[C@@H]2CC[C@@H]3CCC[C@H](NC(=O)c4cc5cc([C@H](F)[P@@](=O)(N[C@@H](C)C(=O)OCc6ccccc6)Oc6ccccc6)ccc5s4)C(=O)N32)C1` (single isomer, unassigned) [Compound 1050], the IC50 lay in the range of 100 to 1000 nM.

For the origin of these results see US20250215029A1 (Recludix Pharma, Inc., priority 2022, published 2025).
